From ChEMBL document CHEMBL5042486, “Discovery and Preclinical Characterization of BIIB091, a Reversible, Selective BTK Inhibitor for the Treatment of Multiple Sclerosis” (J Med Chem, 2022)
Activity calls are given as the source filed them. No cut-off for these calls is given here.

Key:
[1] = Hepatotoxicity in rat primary cells assessed as change in GSH level for 10 days; assay type: toxicity, cell-based, Hepatocyte; settings: hepatocytes, 240 h, time 10 day
[2] = In vivo toxicity in Sprague-Dawley rat assessed as compound related pathology findings at 500 mg/kg after 28 days; assay type: organism-based; settings: 672 h, time 28 day
[3] = Clearance in Sprague-Dawley rat assessed as hepatic blood flow at 1 mg/kg, iv; assay type: ADME, organism-based, Liver; settings: in vivo
[4] = In vivo toxicity in cynomolgus monkey assessed as NOAEL after 28 days; assay type: organism-based, Macaca fascicularis; settings: time 28 day
[5] = Kinetic solubility of the compound at pH 1.5 by shake flask method; assay type: physicochemical; settings: buffer, read-out: Kinetic_solubility
[6] = Volume of distribution at steady state in Beagle dog at 5 mg/kg, po; assay type: ADME, organism-based, Canis lupus familiaris; settings: in vivo
[7] = Drugmetabolism in dog hepatocytes assessed as metabolite formation; assay type: ADME, cell-based, Canis lupus familiaris, Hepatocyte
[8] = target: Proto-oncogene tyrosine-protein kinase Src (Homo sapiens, UniProt P12931); test: Binding affinity to wild-type human partial length SRC (L240 to L536 residues) expressed in bacterial expression system by Kinomescan method
Sequence of Proto-oncogene tyrosine-protein kinase Src (P12931 2-536 limits assumed): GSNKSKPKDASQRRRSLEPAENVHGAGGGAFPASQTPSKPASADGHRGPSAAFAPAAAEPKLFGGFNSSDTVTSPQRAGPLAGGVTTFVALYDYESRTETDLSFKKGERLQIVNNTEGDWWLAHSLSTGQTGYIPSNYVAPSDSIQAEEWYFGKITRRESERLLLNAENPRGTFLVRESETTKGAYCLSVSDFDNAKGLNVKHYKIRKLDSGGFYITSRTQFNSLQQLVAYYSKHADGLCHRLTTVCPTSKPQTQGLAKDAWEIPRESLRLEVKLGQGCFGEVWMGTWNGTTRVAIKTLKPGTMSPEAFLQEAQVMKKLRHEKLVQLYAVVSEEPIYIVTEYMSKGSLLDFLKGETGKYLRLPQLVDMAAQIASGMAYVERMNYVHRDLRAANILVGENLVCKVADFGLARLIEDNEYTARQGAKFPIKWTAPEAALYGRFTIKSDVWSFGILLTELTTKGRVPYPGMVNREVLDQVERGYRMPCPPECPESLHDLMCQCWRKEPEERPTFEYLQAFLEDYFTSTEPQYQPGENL

[9] = Drugmetabolism in rat hepatocytes assessed as metabolite formation; assay type: ADME, cell-based, Hepatocyte
[10] = In vivo inhibition of BTK-dependent B cell activation in C57BL/6 mouse immunized with NP-Ficoll assessed as reduction in anti-NP IgM antibody titer at 0.3 mg/kg, po BID dosed for 10 days; assay type: functional; design: scale not given: the % may be the effect or the level left; settings: time 10 day
Cynomolgus monkey [11] = test: In vivo toxicity in cynomolgus monkey assessed as compound related toxicity at 250 mg/kg after 28 days; assay type: organism-based, Macaca fascicularis; settings: 672 h, time 28 day
[12] = target: Early activation antigen CD69 (Homo sapiens, UniProt Q07108); test: Inhibition of CD69 (unknown origin) assessed as reduction in BCR mediated B cell activation; assay type: cell-based
[13] = Hepatotoxicity in rat primary cells assessed as change in urea level for 10 days; assay type: toxicity, cell-based, Hepatocyte; settings: hepatocytes, 240 h, time 10 day
[14] = In vivo inhibition of BTK-dependent B cell activation in C57BL/6 mouse immunized with NP-Ficoll assessed as reduction in anti-NP IgM antibody titer; assay type: toxicity, organism-based
CD63 antigen = CD63 antigen (Homo sapiens, UniProt P08962); test: Inhibition of CD63 (unknown origin) assessed as FcepsilonR induced basophil activation
Sequence of CD63 antigen (P08962 whole entry): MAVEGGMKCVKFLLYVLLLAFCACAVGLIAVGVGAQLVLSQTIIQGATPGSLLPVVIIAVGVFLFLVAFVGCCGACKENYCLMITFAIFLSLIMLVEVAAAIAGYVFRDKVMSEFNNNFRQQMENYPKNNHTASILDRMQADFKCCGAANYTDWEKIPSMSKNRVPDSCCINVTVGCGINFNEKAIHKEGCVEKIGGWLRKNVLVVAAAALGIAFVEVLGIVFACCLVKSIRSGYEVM

[15] = Hepatotoxicity in rat primary cells assessed as change in albumin level for 10 days; assay type: toxicity, cell-based, Hepatocyte; settings: hepatocytes, 240 h, time 10 day
Cytochrome P450 1A2 = Cytochrome P450 1A2 (Homo sapiens, UniProt P05177); test: Inhibition of CYP1A2 in human liver microsomes at 10 to 50 uM; assay type: ADME; settings: dose 10-50 µM
Sequence of Cytochrome P450 1A2 (P05177 whole entry): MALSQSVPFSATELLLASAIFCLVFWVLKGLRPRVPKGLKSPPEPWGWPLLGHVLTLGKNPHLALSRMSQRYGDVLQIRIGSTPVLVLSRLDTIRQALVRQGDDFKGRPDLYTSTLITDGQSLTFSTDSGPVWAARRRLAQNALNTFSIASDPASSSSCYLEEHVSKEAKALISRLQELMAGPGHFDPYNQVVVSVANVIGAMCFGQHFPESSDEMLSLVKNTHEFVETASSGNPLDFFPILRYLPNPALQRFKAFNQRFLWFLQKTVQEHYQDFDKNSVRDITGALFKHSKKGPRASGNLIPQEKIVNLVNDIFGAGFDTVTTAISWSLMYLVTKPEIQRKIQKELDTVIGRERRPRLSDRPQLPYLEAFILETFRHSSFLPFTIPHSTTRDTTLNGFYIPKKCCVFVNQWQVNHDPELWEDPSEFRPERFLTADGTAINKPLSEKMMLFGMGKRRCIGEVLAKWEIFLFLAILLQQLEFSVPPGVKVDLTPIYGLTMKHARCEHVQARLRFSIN

[16] = Protein binding in human plasma assessed as unbound fraction; assay type: ADME, cell-free
[17] = target: Cyclin-dependent kinase-like 2 (Homo sapiens, UniProt Q92772); test: Binding affinity to wild-type human partial length CDKL2 (M1 to D327 residues) expressed in bacterial expression system by Kinomescan method
Sequence of Cyclin-dependent kinase-like 2 (Q92772 whole entry, the tested form may be a part): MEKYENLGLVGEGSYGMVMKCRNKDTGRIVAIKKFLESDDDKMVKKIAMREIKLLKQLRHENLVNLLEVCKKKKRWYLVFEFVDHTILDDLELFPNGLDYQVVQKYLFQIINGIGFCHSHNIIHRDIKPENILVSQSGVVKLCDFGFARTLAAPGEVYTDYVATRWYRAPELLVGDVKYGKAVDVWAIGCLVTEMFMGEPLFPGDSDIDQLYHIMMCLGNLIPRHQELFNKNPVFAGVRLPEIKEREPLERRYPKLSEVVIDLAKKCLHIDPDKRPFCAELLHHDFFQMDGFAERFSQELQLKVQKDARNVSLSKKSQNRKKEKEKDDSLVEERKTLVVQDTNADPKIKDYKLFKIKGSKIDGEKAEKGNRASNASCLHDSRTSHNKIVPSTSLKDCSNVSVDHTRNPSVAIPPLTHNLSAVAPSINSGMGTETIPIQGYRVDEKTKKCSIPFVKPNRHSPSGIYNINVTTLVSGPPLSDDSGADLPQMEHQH

[18] = Drugmetabolism in cynomolgus monkey hepatocytes assessed as metabolite formation; assay type: ADME, cell-based, Macaca fascicularis, Hepatocyte
Liver [19] = test: Drugmetabolism in rat liver microsomes assessed as metabolite formation; assay type: ADME, Microsome
[20] = Volume of distribution at steady state in cynomolgus monkey at 5 mg/kg, po; assay type: ADME, organism-based, Macaca fascicularis; settings: in vivo
[21] = In vivo inhibition of BTK-dependent B cell activation in C57BL/6 mouse immunized with NP-Ficoll assessed as reduction in anti-NP IgM antibody titer at 30 mg/kg, po BID dosed for 10 days; assay type: functional; design: scale not given: the % may be the effect or the level left; settings: time 10 day
Liver [22] = test: Drugmetabolism in dog liver microsomes assessed as metabolite formation; assay type: ADME, Canis lupus familiaris, Microsome
[23] = target: Voltage-gated inwardly rectifying potassium channel KCNH2 (Homo sapiens, UniProt Q12809); test: Inhibition of human ERG by patch clamp method; assay type: toxicity
Sequence of Voltage-gated inwardly rectifying potassium channel KCNH2 (Q12809 whole entry): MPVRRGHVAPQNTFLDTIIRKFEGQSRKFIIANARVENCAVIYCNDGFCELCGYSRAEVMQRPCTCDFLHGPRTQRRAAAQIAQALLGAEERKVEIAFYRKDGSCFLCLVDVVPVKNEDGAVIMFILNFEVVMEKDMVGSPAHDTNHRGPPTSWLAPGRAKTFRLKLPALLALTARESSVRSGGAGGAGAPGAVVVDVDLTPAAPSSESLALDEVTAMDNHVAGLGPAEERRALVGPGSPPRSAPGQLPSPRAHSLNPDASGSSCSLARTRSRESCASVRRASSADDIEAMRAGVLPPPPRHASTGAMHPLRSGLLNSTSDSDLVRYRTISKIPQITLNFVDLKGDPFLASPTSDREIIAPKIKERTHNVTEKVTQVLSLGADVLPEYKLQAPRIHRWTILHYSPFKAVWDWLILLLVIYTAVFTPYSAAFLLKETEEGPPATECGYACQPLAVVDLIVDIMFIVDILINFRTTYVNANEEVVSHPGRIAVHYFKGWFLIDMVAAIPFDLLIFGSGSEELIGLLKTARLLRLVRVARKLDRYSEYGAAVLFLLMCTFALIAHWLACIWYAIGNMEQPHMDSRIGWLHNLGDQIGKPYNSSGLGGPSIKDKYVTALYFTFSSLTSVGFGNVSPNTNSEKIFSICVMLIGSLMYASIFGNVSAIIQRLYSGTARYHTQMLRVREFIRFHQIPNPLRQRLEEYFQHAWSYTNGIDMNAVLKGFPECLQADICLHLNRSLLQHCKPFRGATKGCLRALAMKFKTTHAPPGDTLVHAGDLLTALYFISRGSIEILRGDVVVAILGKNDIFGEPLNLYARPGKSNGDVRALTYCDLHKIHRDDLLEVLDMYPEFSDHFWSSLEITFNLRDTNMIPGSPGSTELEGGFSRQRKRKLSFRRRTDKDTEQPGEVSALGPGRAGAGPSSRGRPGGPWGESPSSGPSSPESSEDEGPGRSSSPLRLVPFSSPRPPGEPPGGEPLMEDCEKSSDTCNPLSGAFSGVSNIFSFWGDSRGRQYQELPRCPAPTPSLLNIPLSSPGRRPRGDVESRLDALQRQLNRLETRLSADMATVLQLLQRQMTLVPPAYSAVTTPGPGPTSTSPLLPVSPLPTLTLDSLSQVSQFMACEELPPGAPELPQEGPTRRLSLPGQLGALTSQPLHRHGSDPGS

[24] = target: Toll-like receptor 9 (Homo sapiens) (UniProt Q9NR96); test: Inhibition of TLR9 in CpG-B stimulated human PBMC at >10 uM; assay type: cell-based; settings: dose microM >10
Cynomolgus monkey [25] = test: In vivo toxicity in cynomolgus monkey assessed as compound related ECG findings at 250 mg/kg after 28 days; assay type: organism-based, Macaca fascicularis; settings: 672 h, time 28 day
[26] = In vivo inhibition of BTK-dependent B cell activation in C57BL/6 mouse immunized with NP-Ficoll assessed as reduction in anti-NP IgM antibody titer at 0.1 mg/kg, po BID dosed for 10 days; assay type: functional; design: scale not given: the % may be the effect or the level left; settings: time 10 day
[27] = target: Sodium channel protein type 5 subunit alpha (Homo sapiens, UniProt Q14524); test: Inhibition of phasic human Nav1.5; assay type: toxicity
[28] = Kinetic aqueous solubility of the compound in pH 6.8; assay type: physicochemical; settings: read-out: Kinetic_solubility
[29] = Drugmetabolism in cynomolgus monkey liver microsomes assessed as metabolite formation; assay type: ADME, Macaca fascicularis, Microsome
[30] = Clearance in Beagle dog assessed as hepatic blood flow at 1 mg/kg, iv; assay type: ADME, organism-based, Canis lupus familiaris, Liver; settings: in vivo
Cytochrome P450 3A4 = Cytochrome P450 3A4 (Homo sapiens, UniProt P08684); test: Inhibition of CYP3A4 in human liver microsomes at 10 to 50 uM; assay type: ADME; settings: dose 10-50 µM
[31] = Dissociation constant, pKa of the compound; assay type: physicochemical
Bile salt export pump = Bile salt export pump (Homo sapiens, UniProt O95342); test: Inhibition of BSEP (unknown origin) at >30 uM
[32] = target: Tyrosine-protein kinase Tec (Homo sapiens, UniProt P42680); test: Binding affinity to wild-type human partial length TEC (L341 to D620 residues) expressed in bacterial expression system by Kinomescan method
[33] = target: Tumor necrosis factor receptor superfamily member 5 (Homo sapiens) (UniProt P25942); test: Inhibition of CD40 in IL-4/[…] stimulated human PBMC at >10 uM; assay type: cell-based; settings: dose microM >10
Sequence of Tumor necrosis factor receptor superfamily member 5 (Homo sapiens) (P25942 whole entry): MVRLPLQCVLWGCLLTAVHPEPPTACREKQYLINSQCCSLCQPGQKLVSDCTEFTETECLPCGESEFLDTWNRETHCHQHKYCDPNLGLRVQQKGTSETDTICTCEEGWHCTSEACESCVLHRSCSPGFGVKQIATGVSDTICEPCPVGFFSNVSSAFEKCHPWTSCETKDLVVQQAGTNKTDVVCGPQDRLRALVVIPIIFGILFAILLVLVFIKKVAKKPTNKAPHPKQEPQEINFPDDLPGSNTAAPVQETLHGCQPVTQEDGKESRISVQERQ

[34] = Protein binding in human plasma assessed as unbound fraction at 2 uM by rapid equilibrium dialysis method; assay type: ADME, cell-free
Cytochrome P450 2D6 = Cytochrome P450 2D6 (Homo sapiens, UniProt P10635); test: Inhibition of CYP2D6 in human liver microsomes at 10 to 50 uM; assay type: ADME; settings: dose 10-50 µM
[35] = Drugmetabolism in mouse hepatocytes assessed as metabolite formation; assay type: ADME, cell-based, Hepatocyte
[36] = In vivo inhibition of BTK-dependent B cell activation in C57BL/6 mouse immunized with NP-Ficoll assessed as reduction in anti-NP IgM antibody titer at 0.03 mg/kg, po BID dosed for 10 days; assay type: functional; design: scale not given: the % may be the effect or the level left; settings: time 10 day
[37] = target: Broad substrate specificity ATP-binding cassette transporter ABCG2 (Homo sapiens, UniProt Q9UNQ0); test: Inhibition of BCRP (unknown origin) at >30 uM
Sequence of Broad substrate specificity ATP-binding cassette transporter ABCG2 (Q9UNQ0 whole entry): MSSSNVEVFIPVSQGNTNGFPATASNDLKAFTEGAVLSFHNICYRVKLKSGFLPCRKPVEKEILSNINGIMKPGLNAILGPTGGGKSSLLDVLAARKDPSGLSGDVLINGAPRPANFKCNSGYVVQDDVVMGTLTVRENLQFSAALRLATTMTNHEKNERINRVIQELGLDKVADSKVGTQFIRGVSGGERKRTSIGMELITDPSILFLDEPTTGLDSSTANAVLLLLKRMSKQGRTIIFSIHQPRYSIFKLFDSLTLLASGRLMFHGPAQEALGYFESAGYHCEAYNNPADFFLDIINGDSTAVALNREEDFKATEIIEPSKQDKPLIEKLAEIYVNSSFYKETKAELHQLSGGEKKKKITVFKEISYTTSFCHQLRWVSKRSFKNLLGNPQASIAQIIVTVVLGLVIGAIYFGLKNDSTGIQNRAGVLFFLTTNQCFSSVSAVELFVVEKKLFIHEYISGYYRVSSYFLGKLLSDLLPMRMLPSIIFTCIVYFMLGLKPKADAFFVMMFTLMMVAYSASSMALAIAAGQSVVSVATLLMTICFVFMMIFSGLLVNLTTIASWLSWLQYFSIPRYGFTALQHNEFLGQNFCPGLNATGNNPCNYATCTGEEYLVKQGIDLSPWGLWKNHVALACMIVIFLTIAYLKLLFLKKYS

Liver [38] = test: Drugmetabolism in mouse liver microsomes assessed as metabolite formation; assay type: ADME, Microsome
Cynomolgus monkey [39] = test: In vivo toxicity in cynomolgus monkey assessed as compound related pathology at 250 mg/kg after 28 days; assay type: organism-based, Macaca fascicularis; settings: 672 h, time 28 day
[40] = Apparent permeability across basolateral to apical side in human Caco2 cells; assay type: ADME, cell-based; settings: Caco-2
Cytochrome P450 2C19 = Cytochrome P450 2C19 (Homo sapiens, UniProt P33261); test: Inhibition of CYP2C19 in human liver microsomes at 10 to 50 uM; assay type: ADME; settings: dose 10-50 µM
[41] = target: Mitogen-activated protein kinase kinase kinase 13 (Homo sapiens, UniProt O43283); test: Binding affinity to wild-type human full length LZK (M1 to W966 residues) expressed in mammalian expression system by Kinomescan method
Sequence of Mitogen-activated protein kinase kinase kinase 13 (O43283 whole entry, the tested form may be a part): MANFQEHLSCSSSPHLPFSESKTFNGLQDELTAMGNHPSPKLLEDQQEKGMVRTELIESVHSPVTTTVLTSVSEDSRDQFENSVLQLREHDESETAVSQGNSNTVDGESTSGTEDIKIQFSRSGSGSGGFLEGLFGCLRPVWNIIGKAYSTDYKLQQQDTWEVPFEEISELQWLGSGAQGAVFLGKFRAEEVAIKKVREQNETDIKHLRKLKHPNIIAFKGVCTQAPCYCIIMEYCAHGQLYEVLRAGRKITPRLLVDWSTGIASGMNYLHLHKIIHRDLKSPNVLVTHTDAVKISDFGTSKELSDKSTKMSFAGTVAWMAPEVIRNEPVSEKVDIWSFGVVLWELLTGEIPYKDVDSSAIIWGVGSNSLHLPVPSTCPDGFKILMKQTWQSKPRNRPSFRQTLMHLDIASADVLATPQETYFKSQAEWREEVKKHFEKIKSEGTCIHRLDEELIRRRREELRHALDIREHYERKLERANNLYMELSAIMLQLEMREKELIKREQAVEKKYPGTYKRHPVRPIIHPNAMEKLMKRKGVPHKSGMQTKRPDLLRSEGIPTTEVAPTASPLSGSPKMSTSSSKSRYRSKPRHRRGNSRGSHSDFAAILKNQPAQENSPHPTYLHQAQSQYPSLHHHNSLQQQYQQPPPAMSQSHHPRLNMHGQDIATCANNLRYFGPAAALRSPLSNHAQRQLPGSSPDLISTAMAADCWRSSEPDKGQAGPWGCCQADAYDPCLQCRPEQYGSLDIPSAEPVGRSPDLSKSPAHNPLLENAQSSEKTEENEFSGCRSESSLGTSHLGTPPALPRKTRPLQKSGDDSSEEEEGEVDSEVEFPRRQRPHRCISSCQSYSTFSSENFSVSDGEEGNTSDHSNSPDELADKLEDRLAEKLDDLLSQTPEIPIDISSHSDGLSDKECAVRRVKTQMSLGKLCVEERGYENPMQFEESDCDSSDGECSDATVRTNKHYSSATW

[42] = In vivo inhibition of BTK-dependent B cell activation in C57BL/6 mouse immunized with NP-Ficoll assessed as reduction in anti-NP IgM antibody titer at 10 mg/kg, po BID dosed for 10 days; assay type: functional; design: scale not given: the % may be the effect or the level left; settings: time 10 day

Which Activity [1] does the source give for Cn1cc(Nc2nccc(-c3ccc4c(c3)CN(C3COC3)CC[C@H]4NC(=O)c3cn(C(C)(C)C)nn3)n2)cn1 [BIIB-091] here?
Its Activity is “Non-Toxic”.

What about the Activity [2] of the same compound?
The Activity was “Non-Toxic”.

What about the QH [3] of the same compound?
The QH was 22%.

What about the NOAEL at 672 h [4] of the same compound?
The NOAEL at 672 h was 250 mg/kg.

What about the solubility kinetic [5] of the same compound?
The solubility kinetic was greater than 50 µg/mL.

And the Vdss [6]?
The Vdss was 1.7 L/kg.

What about the Drug metabolism [7] of the same compound?
Its Drug metabolism is “Metabolite_Notdetected”.

What about the Kd [8] of the same compound?
Its Kd is 320 nM.

And the Drug metabolism [9]?
The Drug metabolism was “Metabolite_Notdetected”.

What about the Activity [10] of the same compound?
The Activity was 59%.

What about the Activity (Cynomolgus monkey [11]) of the same compound?
Its Activity is “Non-Toxic”.

And the IC50 [12]?
Its IC50 is 71 nM.

And the Activity [13]?
The Activity was “Non-Toxic”.

What about the ED50 [14] of the same compound?
Its ED50 is 1.95 mg/kg.

And the IC50 (CD63 antigen)?
Its IC50 is 82 nM.

And the Activity [15]?
Its Activity is “Non-Toxic”.

And the “inhibition (INH)” value (Cytochrome P450 1A2)?
The value was “Not Active”.

What about the fraction unbound [16] of the same compound?
Its fraction unbound is 0.26.

And the Kd [17]?
Its Kd is 240 nM.

What about the Drug metabolism [18] of the same compound?
The Drug metabolism was “Metabolite_Notdetected”.

What about the Drug metabolism (Liver [19]) of the same compound?
Its Drug metabolism is “Metabolite_Notdetected”.

What about the Vdss [20] of the same compound?
The Vdss was 0.7 L/kg.

And the Activity [21]?
The Activity was 88%.

And the Drug metabolism (Liver [22])?
The Drug metabolism was “Metabolite_Notdetected”.

What about the IC50 [23] of the same compound?
Its IC50 is greater than 25 µM.

What about the inhibition [24] of the same compound?
Its inhibition is “inactive”.

What about the Activity (Cynomolgus monkey [25]) of the same compound?
Its Activity is “Non-Toxic”.

And the Activity [26]?
Its Activity is 44%.

What about the IC50 [27] of the same compound?
Its IC50 is greater than 25 µM.

What about the solubility kinetic [28] of the same compound?
Its solubility kinetic is greater than 50 µg/mL.

And the Drug metabolism [29]?
Its Drug metabolism is “Metabolite_Notdetected”.

And the QH [30]?
Its QH is 33%.

And the “inhibition (INH)” value (Cytochrome P450 3A4)?
The value was “Not Active”.

What about the pKa [31] of the same compound?
The pKa was 2.8.

What about the “inhibition (INH)” value (Bile salt export pump) of the same compound?
The value was “Not Active”.

And the Kd [32]?
Its Kd is 240 nM.

What about the inhibition [33] of the same compound?
The inhibition was “inactive”.

What about the fraction unbound at 2 µM [34] of the same compound?
Its fraction unbound at 2 µM is 0.26.

And the “inhibition (INH)” value (Cytochrome P450 2D6)?
The value was “Not Active”.

And the Drug metabolism [35]?
The Drug metabolism was “Metabolite_Notdetected”.

And the Activity [36]?
Its Activity is 34%.

And the “inhibition (INH)” value [37]?
The value was “Not Active”.

And the Drug metabolism (Liver [38])?
Its Drug metabolism is “Metabolite_Notdetected”.

And the Activity (Cynomolgus monkey [39])?
The Activity was “Non-Toxic”.

What about the Papp B→A [40] of the same compound?
Its Papp B→A is 37.6 ×10⁻⁶ cm/s.

What about the “inhibition (INH)” value (Cytochrome P450 2C19) of the same compound?
The value was “Not Active”.

And the Kd [41]?
The Kd was greater than 3 µM.

What about the Activity [42] of the same compound?
The Activity was 77%.
